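Compound exposure: 48 hours, 5 concentrations, 96-well plates. At the TGI there is no net growth.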
Key:
Assay in all cases: growth of human tumour cells (NCI), 48 h
[1] = test system: LOX IMVI melanoma
[2] = test system: IGROV1 ovarian
[3] = test system: HCC-2998 colon
[4] = test system: T-47D breast
[5] = test system: SW-620 colon
[6] = test system: OVCAR-3 ovarian
[7] = test system: PC-3 prostate
[8] = test system: UACC-257 melanoma
[9] = test system: MCF7 breast
[10] = test system: DU-145 prostate
[11] = test system: A549 NSCLC
[12] = test system: HS 578T breast
[13] = test system: ACHN renal
[14] = test system: NCI-H23 lung
[15] = test system: HCT-116 colon
[16] = test system: HOP-92 NSCLC
[17] = test system: SK-MEL-5 melanoma

Row | SMILES | TGI [1] [µM] | TGI [2] [µM] | TGI [3] [µM] | TGI [4] [µM] | TGI [5] [µM] | TGI [6] [µM] | TGI [7] [µM] | TGI [8] [µM] | TGI [9] [µM] | TGI [10] [µM] | TGI [11] [µM] | TGI [12] [µM] | TGI [13] [µM] | TGI [14] [µM] | TGI [15] [µM] | TGI [16] [µM] | TGI [17] [µM]
1 | C/C=C/C(=O)N1C(=O)OC[C@@H]1c1ccccc1 | 35 | 37.1 | 41.3 | 36.8 | 54.6 | 33.7 | 37.5 | 39.9 | 31.5 | 37.4 | 36.3 | 76.2 | 33.5 | 32.8 | 38.1 | 37.2 | 38.4
2 | CC(=O)OC1CC[C@]2(C)C3CC[C@@]4(C)C(CCC4[C@H](C)CCCC(C)C)[C@@H]3CCC2(Br)C1 (some centres undefined) | 29.4 | 29.7 | > 50 | > 50 | 19.3 | 42.5 | 37.7 | > 50 | 23.3 | > 50 | > 50 | 30.4 | 20.2 | 36.5 | 16.5 | > 50 | –
3 | c1ccc(C[n+]2cccc(-c3cc4ccccc4[nH]3)c2)cc1 | 37.9 | 42.6 | – | > 100 | > 100 | > 100 | > 100 | 32.3 | 98.8 | > 100 | > 100 | > 100 | > 100 | 71 | > 100 | 54 | 23.8
4 | NNc1[nH]c(=S)[nH]c1C(N)=O | > 100 | > 100 | > 100 | > 100 | > 100 | > 100 | > 100 | > 100 | > 100 | > 100 | > 100 | > 100 | – | – | > 100 | – | > 100
5 | CCc1c(Cc2cc(C)cc(C)c2)n2c(nc1=O)SCC2CBr (centres undefined) | > 50 | > 50 | > 50 | > 50 | > 50 | – | > 50 | > 50 | > 50 | > 50 | > 50 | > 50 | > 50 | > 50 | > 50 | > 50 | > 50
6 | CC(C)NCCC(O)c1cc2ccccc2o1 (centres undefined) | > 100 | > 100 | – | > 100 | > 100 | > 100 | > 100 | > 100 | > 100 | > 100 | > 100 | > 100 | > 100 | > 100 | > 100 | > 100 | > 100
7 | COC(=O)c1ccccc1/C=C1\Cc2cc(C)c(C)cc2C1=O | > 100 | > 100 | > 100 | > 100 | > 100 | > 100 | > 100 | > 100 | > 100 | > 100 | > 100 | > 100 | > 100 | – | > 100 | 59.2 | > 100
8 | CC#CCCN(CC#N)Cc1ccccc1 | > 100 | > 100 | > 100 | > 100 | – | – | > 100 | > 100 | 44.7 | > 100 | > 100 | > 100 | 48 | > 100 | > 100 | > 100 | > 100
9 | C[C@]12[C@@H]3CC[C@H]1[C@@H](OC(=O)Nc1cc([N+](=O)[O-])cc([N+](=O)[O-])c1)C(=O)N2CC3 | > 100 | > 100 | > 100 | > 100 | > 100 | – | > 100 | > 100 | > 100 | > 100 | > 100 | > 100 | > 100 | > 100 | > 100 | > 100 | > 100
10 | Cc1c(C)c(S(=O)(=O)N(CCCN)OCCCN)c(C)c2c1OC(C)(C)C2 | 34.9 | 45.8 | 40.9 | > 100 | 59.8 | > 100 | 43.3 | 89.3 | 38.4 | > 100 | > 100 | 40.3 | > 100 | > 100 | > 100 | – | > 100
11 | N#CC(Cc1ccccc1Br)N(CCC1=CCCCC1)C(c1ccccc1)c1ccccc1 (centres undefined) | – | > 100 | > 100 | > 100 | > 100 | > 100 | > 100 | > 100 | > 100 | > 100 | > 100 | > 100 | > 100 | > 100 | > 100 | > 100 | > 100

— PubChem BioAssay (NCI)
